Results: patent US11479539B2, “Small molecule modulators of the BTB domain of Keap1” (MedImmune Limited, priority 2017, dated 2022)

Biological target: Keap1 (Homo sapiens (Human), UniProt Q14145)
Assay: HEK293 ARE luciferase assay
Assay type: cell-based
Conditions: HEK-293 ARE firefly luciferase transiently transfected cells; 18 h incubation; mean of 1 to 20 individual measurements
Procedure, shortened: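 Transiently transfected HEK-293 ARE firefly luciferase cells (10,000/well, DMEM with 10% FCS) exposed to compound, 10-point curve from 100 μM top, 0.3% DMSO, 18 h at 37 °C. SteadyGlo luminescence; activity normalised to 30 μM tBHQ (stimulator) and DMSO (neutral), activity threshold 50; means of 1-20 measurements.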

Keap1, sequence (Q14145 whole entry): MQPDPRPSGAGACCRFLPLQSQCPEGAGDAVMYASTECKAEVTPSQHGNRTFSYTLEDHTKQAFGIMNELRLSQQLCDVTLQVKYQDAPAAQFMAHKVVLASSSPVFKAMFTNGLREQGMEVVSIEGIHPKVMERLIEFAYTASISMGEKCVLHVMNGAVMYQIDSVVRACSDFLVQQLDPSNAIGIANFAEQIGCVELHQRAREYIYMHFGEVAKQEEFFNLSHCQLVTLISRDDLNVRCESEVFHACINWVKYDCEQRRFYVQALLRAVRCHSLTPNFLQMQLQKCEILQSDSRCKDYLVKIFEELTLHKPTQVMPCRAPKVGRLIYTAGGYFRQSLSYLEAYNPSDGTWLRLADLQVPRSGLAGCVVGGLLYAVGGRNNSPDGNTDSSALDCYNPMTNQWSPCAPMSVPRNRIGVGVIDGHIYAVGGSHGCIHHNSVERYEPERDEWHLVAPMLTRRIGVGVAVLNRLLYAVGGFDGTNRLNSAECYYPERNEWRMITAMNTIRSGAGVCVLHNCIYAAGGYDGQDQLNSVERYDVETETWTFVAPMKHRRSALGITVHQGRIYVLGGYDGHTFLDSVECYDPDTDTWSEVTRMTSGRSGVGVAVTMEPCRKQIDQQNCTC

Structure (SMILES) | EC50
CCOC1(c2ccc(F)cn2)C=C(C#N)C(=O)C(C)(C)C1 (stereo not drawn) [Compound 145, 3-ethoxy-3-(5-fluoropyridin-2-yl)-5,5-dimethyl-6-oxocyclohex-1-ene-1-carbonitrile] | 65 nM
COC1(c2ncccc2OC(F)(F)F)C=C(C#N)C(=O)C(C)(C)C1 (stereo not drawn) [Compound 147, 3-methoxy-5,5-dimethyl-6-oxo-3-[3-(trifluoromethoxy)pyridin-2-yl]cyclohex-1-ene-1-carbonitrile] | 22 nM
COC1(c2ncccc2C(F)(F)F)C=C(C#N)C(=O)C2(CCCC2)C1 (stereo not drawn) [Compound 148, 9-methoxy-6-oxo-9-[3-(trifluoromethyl)pyridin-2-yl]spiro[4.5]dec-7-ene-7-carbonitrile] | 252 nM
COC1(c2ncc(F)cc2C)C=C(C#N)C(=O)C2(CCCC2)C1 (stereo not drawn) [Compound 149, 9-(5-fluoro-3-methylpyridin-2-yl)-9-methoxy-6-oxospiro[4.5]dec-7-ene-7-carbonitrile] | 201 nM
COC1(c2scnc2C)C=C(C#N)C(=O)C(C)(C)C1 (stereo not drawn) [Compound 150, 3-methoxy-5,5-dimethyl-3-(4-methyl-1,3-thiazol-5-yl)-6-oxocyclohex-1-ene-1-carbonitrile] | 147 nM
COC1(c2ncc(F)cc2C(F)(F)F)C=C(C#N)C(=O)C(C)(C)C1 (stereo not drawn) [Compound 151, 3-[5-fluoro-3-(trifluoromethyl)pyridin-2-yl]-3-methoxy-5,5-dimethyl-6-oxocyclohex-1-ene-1-carbonitrile] | 34 nM
COC1(c2ncc(F)cc2C(F)F)C=C(C#N)C(=O)C(C)(C)C1 (stereo not drawn) [Compound 152, 3-[3-(difluoromethyl)-5-fluoropyridin-2-yl]-3-methoxy-5,5-dimethyl-6-oxocyclohex-1-ene-1-carbonitrile] | 47 nM
COC1(c2ncc(F)cc2C)C=C(C#N)C(=O)C2(CCCC2)C1 (stereo not drawn) [Compound 153, 9-(5-fluoro-3-methylpyridin-2-yl)-9-methoxy-6-oxospiro[4.5]dec-7-ene-7-carbonitrile] | 7090 nM
COC1(c2nc(C)c(Br)s2)C=C(C#N)C(=O)C(C)(C)C1 (stereo not drawn) [Compound 154, 3-(5-bromo-4-methyl-1,3-thiazol-2-yl)-3-methoxy-5,5-dimethyl-6-oxocyclohex-1-ene-1-carbonitrile] | 53 nM
COC1(c2nc(C)c(-c3ccccn3)s2)C=C(C#N)C(=O)C(C)(C)C1 (stereo not drawn) [Compound 155, 3-methoxy-5,5-dimethyl-3-[4-methyl-5-(pyridin-2-yl)-1,3-thiazol-2-yl]-6-oxocyclohex-1-ene-1-carbonitrile] | 161 nM
COC1(c2ncc(F)cc2F)C=C(C#N)C(=O)C2(CC2)C1 (stereo not drawn) [Compound 156, 7-(3,5-difluoropyridin-2-yl)-7-methoxy-4-oxospiro[2.5]oct-5-ene-5-carbonitrile] | 249 nM
COC1(c2ncc(Cl)cc2F)C=C(C#N)C(=O)C2(CC2)C1 (stereo not drawn) [Compound 157, 7-(5-chloro-3-fluoropyridin-2-yl)-7-methoxy-4-oxospiro[2.5]oct-5-ene-5-carbonitrile] | 448 nM
COC1(c2ncc(Cl)cc2C(F)F)C=C(C#N)C(=O)C(C)(C)C1 (stereo not drawn) [Compound 158, 3-[5-chloro-3-(difluoromethyl)pyridin-2-yl]-3-methoxy-5,5-dimethyl-6-oxocyclohex-1-ene-1-carbonitrile] | 21 nM
COC1(c2ncc(F)cc2OC(F)F)C=C(C#N)C(=O)C2(CC2)C1 (stereo not drawn) [Compound 160, 7-[3-(difluoromethoxy)-5-fluoropyridin-2-yl]-7-methoxy-4-oxospiro[2.5]oct-5-ene-5-carbonitrile] | 20 nM
COC1(c2ncc(F)cc2-c2cnn(C)c2)C=C(C#N)C(=O)C(C)(C)C1 (stereo not drawn) [Compound 161, 3-[5-fluoro-3-(1-methyl-1H-pyrazol-4-yl)pyridin-2-yl]-3-methoxy-5,5-dimethyl-6-oxocyclohex-1-ene-1-carbonitrile] | 14 nM
COC1(c2ncc(F)cc2-c2ccc(F)cc2)C=C(C#N)C(=O)C(C)(C)C1 (stereo not drawn) [Compound 163, 3-[5-fluoro-3-(4-fluorophenyl)pyridin-2-yl]-3-methoxy-5,5-dimethyl-6-oxocyclohex-1-ene-1-carbonitrile] | 54 nM
COC1(c2ncc(F)cc2-c2cnn(C)c2C)C=C(C#N)C(=O)C(C)(C)C1 (stereo not drawn) [Compound 164, 3-[3-(1,5-dimethyl-1H-pyrazol-4-yl)-5-fluoropyridin-2-yl]-3-methoxy-5,5-dimethyl-6-oxocyclohex-1-ene-1-carbonitrile] | 28 nM
COC1(c2ncc(F)cc2C#CC(C)C)C=C(C#N)C(=O)C(C)(C)C1 (stereo not drawn) [Compound 165, 3-[5-fluoro-3-(3-methylbut-1-yn-1-yl)pyridin-2-yl]-3-methoxy-5,5-dimethyl-6-oxocyclohex-1-ene-1-carbonitrile] | 151 nM

Structure (SMILES) | EC50
COC1(c2ncc(F)cc2-c2cnn(C3CC3)c2)C=C(C#N)C(=O)C(C)(C)C1 (stereo not drawn) [Compound 166, 3-[3-(1-cyclopropyl-1H-pyrazol-4-yl)-5-fluoropyridin-2-yl]-3-methoxy-5,5-dimethyl-6-oxocyclohex-1-ene-1-carbonitrile] | 14 nM
COC1(c2ncc(F)cc2-c2ccc(=O)n(C)c2)C=C(C#N)C(=O)C(C)(C)C1 (stereo not drawn) [Compound 167, 3-(5-fluoro-1′-methyl-6′-oxo[1′,6′-dihydro[3,3′-bipyridine]]-2-yl)-3-methoxy-5,5-dimethyl-6-oxocyclohex-1-ene-1-carbonitrile] | 18 nM
COC1(c2ncc(F)cc2-c2cnc(C)s2)C=C(C#N)C(=O)C(C)(C)C1 (stereo not drawn) [Compound 168, 3-[5-fluoro-3-(2-methyl-1,3-thiazol-5-yl)pyridin-2-yl]-3-methoxy-5,5-dimethyl-6-oxocyclohex-1-ene-1-carbonitrile] | 12 nM
CCCc1cccnc1C1(OC)C=C(C#N)C(=O)C(C)(C)C1 (stereo not drawn) [Compound 169, 3-methoxy-5,5-dimethyl-6-oxo-3-(3-propylpyridin-2-yl)cyclohex-1-ene-1-carbonitrile] | 173 nM
COC1(c2ncc(F)cc2-c2ccnc(C)c2)C=C(C#N)C(=O)C(C)(C)C1 (stereo not drawn) [Compound 170, 3-(5-fluoro-2′-methyl[3,4′-bipyridin]-2-yl)-3-methoxy-5,5-dimethyl-6-oxocyclohex-1-ene-1-carbonitrile] | 12 nM
COC1(c2ncc(F)cc2-c2cccn(C)c2=O)C=C(C#N)C(=O)C(C)(C)C1 (stereo not drawn) [Compound 171, 3-(5-fluoro-1′-methyl-2′-oxo[1′,2′-dihydro[3,3′-bipyridine]]-2-yl)-3-methoxy-5,5-dimethyl-6-oxocyclohex-1-ene-1-carbonitrile] | 136 nM
COC1(c2ncc(F)cc2-c2cn(C)nc2C)C=C(C#N)C(=O)C(C)(C)C1 (stereo not drawn) [Compound 172, 3-[3-(1,3-dimethyl-1H-pyrazol-4-yl)-5-fluoropyridin-2-yl]-3-methoxy-5,5-dimethyl-6-oxocyclohex-1-ene-1-carbonitrile] | 8 nM
COC1(c2ncc(F)cc2-c2cc(C)nc(C)c2)C=C(C#N)C(=O)C(C)(C)C1 (stereo not drawn) [Compound 173, 3-(5-fluoro-2′,6′-dimethyl[3,4′-bipyridin]-2-yl)-3-methoxy-5,5-dimethyl-6-oxocyclohex-1-ene-1-carbonitrile] | 15 nM
COC1(c2ncc(F)cc2OC(F)F)C=C(C#N)C(=O)C(C)(C)C1 (stereo not drawn) [Compound 174, 3-[3-(difluoromethoxy)-5-fluoropyridin-2-yl]-3-methoxy-5,5-dimethyl-6-oxocyclohex-1-ene-1-carbonitrile] | 41 nM
COC1(c2ncc(F)cc2-c2ccnc(C)c2C)C=C(C#N)C(=O)C(C)(C)C1 (stereo not drawn) [Compound 175, 3-(5-fluoro-2′,3′-dimethyl[3,4′-bipyridin]-2-yl)-3-methoxy-5,5-dimethyl-6-oxocyclohex-1-ene-1-carbonitrile] | 174 nM
C/C=C/c1cc(F)cnc1C1(OC)C=C(C#N)C(=O)C(C)(C)C1 (stereo not drawn) [Compound 176, 3-{5-fluoro-3-[(1E)-prop-1-en-1-yl]pyridin-2-yl}-3-methoxy-5,5-dimethyl-6-oxocyclohex-1-ene-1-carbonitrile] | 19 nM
COC1(c2ncc(F)cc2-c2cccnc2C)C=C(C#N)C(=O)C(C)(C)C1 (stereo not drawn) [Compound 177, 3-(5-fluoro-2′-methyl[3,3′-bipyridin]-2-yl)-3-methoxy-5,5-dimethyl-6-oxocyclohex-1-ene-1-carbonitrile] | 103 nM
COC1(c2ncc(F)cc2-c2ccns2)C=C(C#N)C(=O)C(C)(C)C1 (stereo not drawn) [Compound 178, 3-[5-fluoro-3-(1,2-thiazol-5-yl)pyridin-2-yl]-3-methoxy-5,5-dimethyl-6-oxocyclohex-1-ene-1-carbonitrile] | 52 nM
COC1(c2ncc(F)cc2-c2cnn(-c3ccccc3)c2)C=C(C#N)C(=O)C(C)(C)C1 (stereo not drawn) [Compound 179, 3-[5-fluoro-3-(1-phenyl-1H-pyrazol-4-yl)pyridin-2-yl]-3-methoxy-5,5-dimethyl-6-oxocyclohex-1-ene-1-carbonitrile] | 7 nM
COC1(c2ncc(F)cc2-c2cnn(C3CCCC3)c2)C=C(C#N)C(=O)C(C)(C)C1 (stereo not drawn) [Compound 180, 3-[3-(1-cyclopentyl-1H-pyrazol-4-yl)-5-fluoropyridin-2-yl]-3-methoxy-5,5-dimethyl-6-oxocyclohex-1-ene-1-carbonitrile] | 115 nM
CCn1cc(-c2cc(F)cnc2C2(OC)C=C(C#N)C(=O)C(C)(C)C2)cn1 (stereo not drawn) [Compound 181, 3-[3-(1-ethyl-1H-pyrazol-4-yl)-5-fluoropyridin-2-yl]-3-methoxy-5,5-dimethyl-6-oxocyclohex-1-ene-1-carbonitrile] | 68 nM
COC1(c2ncc(F)cc2-c2cncc(F)c2)C=C(C#N)C(=O)C(C)(C)C1 (stereo not drawn) [Compound 182, 3-(5,5′-difluoro[3,3′-bipyridin]-2-yl)-3-methoxy-5,5-dimethyl-6-oxocyclohex-1-ene-1-carbonitrile] | 105 nM
COC1(c2ncc(F)cc2-c2cnc(C)nc2)C=C(C#N)C(=O)C(C)(C)C1 (stereo not drawn) [Compound 183, 3-[5-fluoro-3-(2-methylpyrimidin-5-yl)pyridin-2-yl]-3-methoxy-5,5-dimethyl-6-oxocyclohex-1-ene-1-carbonitrile] | 121 nM
